Data on one compound can be found in paper PMC8962514 (ACS infectious diseases, 2022).

In brackets after ≈: the same amount, converted by molar mass. Non-standard residues stand in square brackets, D forms with d. Residues, ends and D or L forms follow the SMILES beside them. Nspe = C[C@H](NCC(=O)O)c1ccccc1; NDecylGly = CCCCCCCCCCNCC(=O)O; Nlys = NCCCCNCC(=O)O

Series [1] deals with P. aeruginosa LESB58 biofilm. Briefly: Biofilm eradication under host-mimicking conditions, monomicrobial. The settings on record: 31.25 μg/mL peptoid, DMEM-FBS-G, n = 3. It is filed as cell-based, Pseudomonas aeruginosa.
The test system of the next series is A. baumannii AB5075. It is filed as cell-based, Acinetobacter baumannii. The settings on record: AB5075, 16 h.
The nature of series [2]: Self-assembly in aqueous solution by small angle X-ray scattering. It counts as physicochemical.
In a further series the test system is K. pneumoniae KPLN649. It is filed as cell-based, Klebsiella pneumoniae. The settings on record: KPLN649, 16 h.
Series [3] relates to S. aureus USA300 LAC. Briefly: Subcutaneous abscess infection model. It counts as in vivo, mice. The settings on record: 1.25 mg/kg for TM8, vs PBS.
The subject of the next series is K. pneumoniae biofilm. Briefly: Minimal biofilm inhibition. It counts as cell-based, Klebsiella pneumoniae. The settings on record: 1.56 μg/mL peptoid, relative to PBS, n = 3.
In the next series the test system is P. aeruginosa LESB58. It counts as cell-based, Pseudomonas aeruginosa. The settings on record: LESB58, 16 h.
The next series relates to E. cloacae biofilm. The experiment in a line: Minimal biofilm inhibition. It counts as cell-based, Enterobacter cloacae. The settings on record: 1.56 μg/mL peptoid, relative to PBS, n = 3.
The test system of the next series is E. faecium #2-1. It counts as cell-based, Enterococcus faecium. The settings on record: #2-1, 16 h.
For a further series, the system named is S. aureus biofilm. The experiment in a line: Minimal biofilm inhibition. The settings on record: 1.56 μg/mL peptoid, relative to PBS, n = 3. It counts as cell-based, Staphylococcus aureus.
The next series deals with E. cloacae 218R1. It counts as cell-based, Enterobacter cloacae. The settings on record: 218R1, 16 h.
A short description of series [4]: In vivo toxicity / maximum tolerated dose. The settings on record: mice, Table S3.
In series [5] the test system is S. aureus USA300 LAC. It is filed as cell-based, Staphylococcus aureus. The settings on record: USA300, 16 h.
Series [6] has as its system K. pneumoniae pre-formed biofilm. The experiment in a line: Minimal biofilm eradication. It is filed as cell-based, Klebsiella pneumoniae. The settings on record: 12.5 μg/ml peptoid (Figure 4 legend; 6.25 μg/mL), relative to PBS, n = 3.
The subject of series [7] is A. baumannii pre-formed biofilm. The experiment in a line: Minimal biofilm eradication. The settings on record: 6.25 μg/ml peptoid, relative to PBS, n = 3. It counts as cell-based, Acinetobacter baumannii.
The test system of series [8] is S. aureus pre-formed biofilm. The experiment in a line: Minimal biofilm eradication. It is filed as cell-based, Staphylococcus aureus. The settings on record: 12.5 μg/ml peptoid (Figure 4 legend; 6.25 μg/mL), relative to PBS, n = 3.
The next series relates to P. aeruginosa biofilm. The experiment in a line: Minimal biofilm inhibition. It is filed as cell-based, Pseudomonas aeruginosa. The settings on record: 1.56 μg/mL peptoid, relative to PBS, n = 3.

Turning to `CCCCCCCCCCNCC(=O)N(CCCCN)CC(=O)N(CC(=O)N(CC(=O)N(CCCCN)CC(=O)N(CC(=O)N(CC(N)=O)[C@@H](C)c1ccccc1)[C@@H](C)c1ccccc1)[C@@H](C)c1ccccc1)[C@@H](C)c1ccccc1` [TM8] (H-[NDecylGly][Nlys][Nspe][Nspe][Nlys][Nspe][Nspe]-NH2), the “Reduction of P. aeruginosa bacterial numbers in biofilm (CFU)” value in series [1] was 1,000 fold. Moreover, the “Minimum inhibitory concentration (MIC)” value with A. baumannii AB5075 was 3.13 µg/mL (≈ 2.81 µM); in the series with K. pneumoniae KPLN649, 12.5 µg/mL (≈ 11.2 µM); with P. aeruginosa LESB58, 6.25 µg/mL (≈ 5.6 µM); in the series on E. faecium #2-1 it was 0.78 µg/mL (≈ 0.699 µM); in the series with E. cloacae 218R1 it was 12.5 µg/mL (≈ 11.2 µM); with S. aureus USA300 LAC [5] it was 3.13 µg/mL (≈ 2.81 µM). In [2] (SAXS model analysis), the “Eccentricity (ε) of ellipsoidal micelles” value is given as 1.9. Further, the “Rcore of ellipsoidal micelles” value in [2] (SAXS model analysis) is on record as 10 Å. For the same compound, the “dR (shell) of ellipsoidal micelles” value in series [2] (SAXS model analysis) turned out to be 9 Å. Besides, in series [2] (SAXS, on average), the “Aggregation number of ellipsoidal micellar assemblies” value is recorded as ~103 peptoids. The “Fraction of larger aggregates” value in [2] (SAXS, upturn at low Q, 4mM, 20°C) was ~ 0.08%. Moreover, the “Self-assembled structure (SAXS best fit)” value in series [2] (aqueous solution, peptoids 4mM, 20°C, theoretical model analysis) is recorded as “ellipsoidal micellar assemblies”. Moreover, the “Effect on S. aureus abscess size and bacterial burden, in words” value with S. aureus USA300 LAC [3] was “insignificantly reduced”. The “Inhibition of biofilm formation (CV staining)” value in the series on K. pneumoniae biofilm, in the series with E. cloacae biofilm, in the series with S. aureus biofilm and with P. aeruginosa biofilm was “inhibited biofilm formation” throughout. The Maximum tolerated dose in series [4] is listed as 1.25 mg/kg. The “Reduction of biomass of pre-formed biofilm (CV staining)” value in series [6] and in [8] was “impacted” each time. For the same compound, the “Reduction of biofilm metabolic activity (TTC reduction)” value in [7] is given as “metabolic activity was reduced”.
